Laboratory results taken from patent publication US20240400584A1, “COMPOUNDS AND METHODS FOR MODULATING SPLICING” (REMIX THERAPEUTICS INC., priority 2021, published 2024).

Columns and labels:
MYB = assay: RT-qPCR splicing assay, MYB AJ/CJ mRNA; type: cell-based; details: Homo sapiens, A673 or K562 cells, 24 hours; for IC50: decrease in canonical junction mRNA; for AC50: increase in alternative junction mRNA
Summary of the method: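 Splicing switch scored as change in CJ and AJ isoform levels, by RT-qPCR on lysates of A673 or K562 cells dosed 24 h (top concentration 10 uM, DMSO at most 0.25%). ΔΔCt relative to DMSO wells was converted to RQ and then to percentage response.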

[1] = system: HiBit-tagged HTT in K562 cells; assay: HiBiT protein abundance assay, HTT; type: cell-based, human; details: HiBiT-modified K562 cells, 24 hours, luminescence
Procedure: (§1) Compounds described herein were used to screen for effects on quantitative protein abundance using a HiBit assay system (Promega). Quantitative protein abundance was determined by measuring the protein levels of HiBit-tagged protein targets expressed in cell culture via luminescence using the Nano-Glo HiBiT Lytic Detection System, which uses a split complementation assay format to reconstitute NanoBiT enzyme to generate a luminescent signal. A protein abundance assay was developed such that endogenous protein targets could be modified with the HiBiT peptide tag and their abundance could be assessed after compound treatment. Briefly, K562 cell lines containing a HiBiT-modification were treated with various compounds described herein (e.g., compounds of Formulas (I)). After treatment for 24 hours, the protein abundance of a specific target was determined by measuring luminescence.
(§2) Cells were maintained in IMDM with 10% FBS. Before the assay, cells were diluted with […] growth media (IMDM+[…] media) and were seeded in a 384-well plate at a density of 10000 cells/well (for each cell line listed in Table 8). Each compound was prepared as a 10-point 3-fold serial dilution in DMSO with the top dose at a final concentration of 10 μM in the well. Unmodified K562 cells were added at the previously specified density with DMSO to serve as an assay baseline and positive control (PC) and DMSO only with the respective modified cell lines was added to the negative control (NC) columns. Final DMSO concentration was kept at or below 0.25% o. Treated cell plates were placed in an incubator at 37° C. with […] for 24 hours. After 24 hours, 25 μL of Complete HiBit Lytic reagent was added to each well at room temperature (e.g. one plate requiring 10 mL Lytic Buffer, 100 μL LgBiT Protein, 200 μL Lytic Substrate), shaken for 5 minutes at 600 RPM, then left to sit for 10 minutes for signal to stabilize before reading on a Spark Cyto plate reader (Tecan) with a 500 ms measurement time.
(§3) To determine compound effects on protein abundance of each target in Table 9, the percent response for each respective cell line was calculated at each compound concentration as follows:
(§4) For the normalized response at each concentration, a four-parameter logistical regression was fit to the data and the response was interpolated at the […] to determine a concentration for protein abundance at 50% o (IC50) the untreated control.

[2] = system: HiBit-tagged MYB in K562 cells; assay: HiBiT protein abundance assay, MYB; type: cell-based, human; details: HiBiT-modified K562 cells, 24 hours, luminescence
Procedure: as §1, §2, §3, §4

| SMILES | IC50 (MYB) | AC50 (MYB) | IC50 [1] | IC50 [2] |
| --- | --- | --- | --- | --- |
| c1cnn(-c2ccc3c(c2)COc2nc(NC4CNC4)ccc2-3)c1 [Compound 166] | > 10000 nM | > 10000 nM | 1000 to 10000 nM | 1000 to 10000 nM |
| Cc1cnc(-c2ccc3c(c2)COc2nc(N(C)[C@@H]4C[C@H]5CC[C@@H](C4)N5)ccc2-3)o1 [Compound 206] | 100 to 1000 nM | 1000 to 10000 nM | < 100 nM | 100 to 1000 nM |
| c1cc2c(cc1-c1cn[nH]c1)COc1nc(N3CCC34CCNC4)ccc1-2 (stereo not drawn) [Compound 207] | 1000 to 10000 nM | 100 to 1000 nM | 1000 to 10000 nM | 1000 to 10000 nM |
| Cc1ncc(-c2ccc3c(c2)COc2nc(O[C@@H]4C[C@H]5C[C@@H](C4)N5)ccc2-3)s1 [Compound 208] | 100 to 1000 nM | 100 to 1000 nM | < 100 nM | 100 to 1000 nM |
| c1cc2c(cc1-c1cn[nH]c1)COc1nc(O[C@@H]3C[C@H]4CC[C@@H](C3)N4)ccc1-2 [Compound 218] | 100 to 1000 nM | 100 to 1000 nM | 100 to 1000 nM | < 100 nM |
| COc1cc(-c2ccc3c(c2)COc2nc(N4CCC(NC5(C)CCC5)C4)ccc2-3)cnn1 (stereo not drawn) [Compound 285, 1-[8-(6-methoxypyridazin-4-yl)-6H-isochromeno[3,4-b]pyridin-3-yl]-N-(1-methylcyclobutyl)pyrrolidin-3-amine] | 100 to 1000 nM | 100 to 1000 nM | 100 to 1000 nM | 100 to 1000 nM |
| CC(C)Oc1cnnc(-c2ccc3c(c2)COc2nc(N4CCC(NC(C)(C)C)C4)ccc2-3)c1 (stereo not drawn) [Compound 286] | > 10000 nM | > 10000 nM | 1000 to 10000 nM | 1000 to 10000 nM |
| COc1cc(-c2ccc3c(c2)COc2nc(N4CCN[C@@H](C)C4)ccc2-3)cnn1 [Compound 287] | 1000 to 10000 nM | 1000 to 10000 nM | 100 to 1000 nM | 100 to 1000 nM |
| COc1cc(-c2ccc3c(c2)COc2nc(O[C@@H]4C[C@H]5COC[C@@H](C4)N5)ccc2-3)cnn1 [Compound 290, (exo)-7-{[8-(6-methoxypyridazin-4-yl)-6H-isochromeno[3,4-b]pyridin-3-yl]oxy}-3-oxa-9-azabicyclo[3.3.1]nonane] | 100 to 1000 nM | 100 to 1000 nM | < 100 nM | 100 to 1000 nM |
| COc1cc(-c2ccc3c(c2)COc2nc(N4CCC(N5CCCC5)C4)ccc2-3)cnn1 (stereo not drawn) [Compound 305] | 1000 to 10000 nM | 1000 to 10000 nM | 100 to 1000 nM | 1000 to 10000 nM |
| COc1cc(-c2ccc3c(c2)COc2nc(N4CCC(N(C)C)C4)ccc2-3)cnn1 (stereo not drawn) [Compound 306, 1-[8-(6-methoxypyridazin-4-yl)-6H-isochromeno[3,4-b]pyridin-3-yl]-N,N-dimethylpyrrolidin-3-amine] | 1000 to 10000 nM | 1000 to 10000 nM | 100 to 1000 nM | 1000 to 10000 nM |
| COc1cc(-c2ccc3c(c2)COc2nc(N4CCC(N(C)C5CCC5)C4)ccc2-3)cnn1 (stereo not drawn) [Compound 307, N-cyclobutyl-1-[8-(6-methoxypyridazin-4-yl)-6H-isochromeno[3,4-b]pyridin-3-yl]-N-methylpyrrolidin-3-amine] | 1000 to 10000 nM | 100 to 1000 nM | 100 to 1000 nM | 100 to 1000 nM |
